From publication PMC9297664, “Cationic peptide carriers enable long-term delivery of insulin-like growth factor-1 to suppress osteoarthritis-induced matrix degradation” (Arthritis Research & Therapy, 2022)
Entries after “also recorded” stand apart in the source; their conditions may differ.

Experiments:
[1] = parameters: method as in 3 sources, ref 37 = [37]; PMID 24470361; doi:10.1002/art.38357; 37. Loffredo FS Pancoast JR Cai L Vannelli T Dong JZ Lee RT Targeted delivery to cartilage is critical for in vivo efficacy of insulin-like growth factor 1 in a rat model of osteoarthritis Arthritis R ||| ref 42 = [42]; PMID 20722014; doi:10.1002/art.27709; 42. Miller RE Grodzinsky AJ Cummings K Plaas AHK Cole AA Lee RT Intraarticular injection of heparin-binding insulin-like growth factor 1 sustains delivery of insulin-like growth factor 1 to cartilage ||| ref 43 = [43]; PMID 30487252; doi:10.1126/scitranslmed.aat8800; 43. Geiger BC Wang S Padera RF Grodzinsky AJ Hammond PT Cartilage-penetrating nanocarriers improve delivery and efficacy of growth factor treatment of osteoarthritis Sci Transl Med 2018 10 eaat8800 10; conditions: cited from earlier work; for Detection in cartilage samples: rat cartilage, 6 days post-IA injection
[2] = system: rat knee joints; conditions: post-IA injection in ACL transected (ACLT) rat knee joints, compared to free IGF-1; cited from earlier work
Excerpt: The high negative FCD of cartilage resulting from the negatively charged GAGs provides a unique opportunity to make drug cartilage penetrating using cationic carriers.

[3] = system: IL-1α treated cartilage explants; assay: Cellular metabolism in cartilage explants (AlamarBlue); format: cell-based, bovine; conditions: IL-1α 2 ng/mL, days 8 and 16
Protocol: (§1) Media was collected and changed every 2 days and IL-1α was replenished with each media change. […] IL-1α is chosen for this in-vitro post-traumatic (PTOA) model as it is elevated during the inflammatory phase following an injury and causes degradation of aggrecans, collagens, inhibits proteoglycan synthesis, and alters chondrocyte viability. 2 ng/mL concentration was chosen as it represents a moderately aggressive cytokine treatment.
On days 8 and 16 of culture, cellular metabolism in cartilage explants was determined by measuring the metabolic oxidation activity by using AlamarBlue assay. Briefly, cartilage explants were individually incubated with media containing 1× resazurin sodium salt for 3 h in the dark at 37 °C and 5% CO2. Cell metabolic activity was estimated by measuring fluorescence at 530 nm excitation and 590 nm emission wavelengths using a microplate reader (Synergy H1, Biotek).

[4] = system: human OA cartilage explants; parameters: method as in PMID 18050312; conditions: cited from earlier work
[5] = system: endplate chondrocytes; conditions: IGF-1 administration; cited from earlier work
[6] = system: IL-1α treated cartilage explants; assay: Nitrite release from cartilage to medium (Griess assay); format: cell-based, bovine; conditions: IL-1α 2 ng/mL; for Nitrite production: days 2, 8 and 16
Protocol: as §1
Nitrite content was measured using the Griess assay as a marker of nitric oxide (NO) release from cartilage into the medium. Equal volumes of Griess reagent and culture media collected every two days were mixed and incubated at room temperature for 15 min, and absorbance at 540 nm was measured using a microplate reader (Synergy H1, Biotek). Sodium nitrite solution in DMEM was used as a standard to convert absorbance readings to nitrite content in the sample medium.

[7] = system: chondrocytes in IL-1α treated cartilage explants; assay: Chondrocyte viability in cartilage (FDA/PI live-dead staining); format: cell-based, bovine; conditions: IL-1α 2 ng/mL, days 8 and 16
Protocol: as §1
On days 8 and 16 of culture, 100 μm thick slices were cut from the center of cartilage disks as described before. Cartilage slices were stained with FDA (4 mg/ml in PBS) and PI ([…] in PBS) for 5 min. FDA stained viable cells green and PI stained the non-viable cells red. Slices were washed with PBS and imaged using a fluorescence microscope (Nikon Eclipse TS2R) at 4× objective. The viable and non-viable cell images were overlaid using ImageJ.

[8] = Depth of penetration, 1-D transport chamber, confocal imaging, absorption then desorption; format: in vitro ADME, bovine
Protocol: The chamber was placed in a covered petri dish with DI water inside an incubator at 37 °C under gentle shaking. After 24 h, a 100 μm slice was cut from the center of the explant and imaged using a confocal microscope (Zeiss LSM 800). Cy5 (red channel) was excited 640 nm laser and FITC (green channel) was excited using a 488 nm laser. Z-stacks of images from both channels were obtained and maximum intensity along the z-axis was projected. The intensity across the thickness to represent the penetration concentration profile was plotted along a straight line from the superficial to deep zone using FIJI.

[9] = system: IL-1α treated cartilage explants; assay: GAG loss from cartilage (DMMB), IL-1α-challenged explant culture post-traumatic OA model; format: cell-based, bovine; conditions: IL-1α 2 ng/mL
Protocol: as §1
After 16 days of culture, the cartilage explants were weighed and digested using Proteinase-K solution in Tris buffer at pH 8. The cumulative GAG released to the media and the residual GAG content in the digested tissue explants was measured using DMMB assay. The GAG content was expressed as a percentage of the total GAG content (in media + residual GAG in the digested explant).

[10] = system: IL-1 and TNF-α challenged cartilage; conditions: cited from earlier work
Excerpt: Media was collected and changed every 2 days and IL-1α was replenished with each media change.

[11] = single dose 1000 ng/ml IGF-1 (S), free or as conjugate

Substance: PAMAM-IGF-1: IGF-1 carried by polyamidoamine (PAMAM) dendrimer cationic nanoparticles (Gen 6, 58 kDa) [reference compound]
- Detection in cartilage samples [1]: detected
- Duration of bioavailability of IGF-1 in the knee joint space ([1]; rat knee joint space post-IA injection): 30.4 days
- Matrix degradation and osteophyte formation [2]: significantly suppressed matrix degradation and osteophyte formation

Substance: IGF-1: Human recombinant insulin-like growth factor-1, ~7.6 kDa pro-anabolic growth factor (PeproTech)
- Chondrocyte metabolic activity ([3]; continuous dose 100 ng/ml (C)): match the response from the untreated control condition
- Chondrocyte metabolic activity ([3]; single dose 100 ng/ml (S)): not effective in rescuing chondrocyte metabolic activity or viability
- Chondrocyte metabolic activity [3, 11]: failed to rescue the reduced cell metabolism and viability over the long-term; also recorded: ineffective in rescuing the reduced metabolic rate
- Increase of proteoglycan synthesis ([4]; 3 ng/ml IGF-1, milder degree of OA explants (MANKIN score 4)): 1.8 fold
- Enhancement of proteoglycan synthesis ([4]; 30 ng/ml IGF-1, advanced OA cartilage explants (MANKIN score 8)): 2.6 fold
- Decrease of MMP-13 expression [5]: 50%
- Cumulative nitrite levels ([6]; continuous dose 100 ng/ml (C), 16 days): significantly suppressed the IL-1-induced cumulative nitrite levels
- Nitrite production ([6]; single dose 100 ng/ml (S)): suppressed nitrite production only on day 2
- Nitrite production [6, 11]: suppressed nitrite production only on day 2
- Retention in cartilage / joint tissues ([1]; 24 h post-IA injection in rats): no free IGF-1 was detectable in any joint tissues
- Retention in cartilage ([1]; 2 days post-IA injection in rat knees): no retention of free IGF-1 was observed in cartilage
- Detection in cartilage samples [1]: no trace of free IGF-1 was detectable
- Chondrocyte viability ([7]; continuous dose 100 ng/ml (C)): match the response from the untreated control condition
- Chondrocyte viability ([7]; single dose 100 ng/ml (S)): not effective in rescuing chondrocyte metabolic activity or viability
- Chondrocyte viability [7, 11]: failed to rescue the reduced cell metabolism and viability over the long-term; also recorded: not effective
- Depth of penetration from superficial to deep zone [8]: penetrated through the full thickness of cartilage
- Retention in cartilage after desorption [8]: most of the free IGF-1 desorbed out of the cartilage
- Time for desorption out of the cartilage [8]: ≤ 24 h
- GAG loss to media ([9]; continuous dose 100 ng/ml (C), replenished every 2 days, 16-day culture): keep the GAG loss levels down to control levels
- GAG loss to media ([9]; single dose 100 ng/ml (S), first 2 days only, day 2): significantly inhibited GAG loss by day 2
- Cumulative GAG loss to media ([9]; single dose 1000 ng/ml IGF-1 (S), free or as conjugate, 16-day culture): remained ineffective in providing a prolonged effect
- Saturating concentration for suppression of GAG loss ([10]; IL-1 and TNF-α challenged cartilage culture models, multiple dosing): 100 ng/mL
- Concentration at which the therapeutic effect saturates (suppression of IL-1α-induced catabolic activity) ([10]; similar cartilage explant culture model): 100 ng/mL
